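Grown in 96-well plates, cells were treated for 48 hours with each compound at five concentrations. Insufficient inhibition: endpoint recorded as highest concentration tested. GI50 is the concentration that inhibits growth by half.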 The source made the active and inactive calls. Cut-off read from the data, not from the text of the source: active = GI50 up to about 1.1 µM and inactive = higher.
Experiments:
Assay in all cases: DTP human tumour cell line panel, 48 h
IGROV-1 = test system: IGROV-1
NCI-H23 = test system: NCI-H23
KM12 = test system: KM12
LOX IMVI = test system: LOX IMVI
CAKI-1 = test system: CAKI-1
SK-MEL-2 = test system: SK-MEL-2
K562 = test system: K562
SF-539 = test system: SF-539
UACC-62 = test system: UACC-62
CCRF-CEM = test system: CCRF-CEM
ACHN = test system: ACHN
SK-MEL-28 = test system: SK-MEL-28
A498 = test system: A498
Malme-3M = test system: Malme-3M
SNB-19 = test system: SNB-19
HL-60 = test system: HL-60
HCT-116 = test system: HCT-116
SK-OV-3 = test system: SK-OV-3

Measured: GI50

O=C1C2Cc3ccccc3CN2C(=O)N1CN1CCCCC1 (stereo not given)
inactive: IGROV-1 > 100 µM | NCI-H23 > 100 µM | KM12 > 100 µM | LOX IMVI > 100 µM | CAKI-1 > 100 µM | SK-MEL-2 > 100 µM | K562 > 100 µM | SF-539 > 100 µM | UACC-62 78 µM | CCRF-CEM 43.4 µM | ACHN > 100 µM | SK-MEL-28 > 100 µM | A498 > 100 µM | Malme-3M > 100 µM | SNB-19 > 100 µM | HL-60 26.6 µM

COC(=O)C1CCC(=O)N1/C(C)=N/NC(=O)Nc1ccc(Cl)c(Cl)c1 (stereo not given)
inactive: IGROV-1 > 100 µM | NCI-H23 > 100 µM | KM12 98.4 µM | LOX IMVI 31.5 µM | CAKI-1 74.6 µM | SK-MEL-2 > 100 µM | HCT-116 > 100 µM | K562 16.6 µM | SF-539 > 100 µM | UACC-62 10.5 µM | CCRF-CEM > 100 µM | ACHN 21 µM | SK-MEL-28 > 100 µM | A498 > 100 µM | SNB-19 > 100 µM | HL-60 > 100 µM | SK-OV-3 43.4 µM

O=C(CC1(O)C(=O)Nc2ccccc21)c1ccccc1O (stereo not given)
inactive: IGROV-1 > 100 µM | NCI-H23 > 100 µM | LOX IMVI > 100 µM | CAKI-1 > 100 µM | SK-MEL-2 > 100 µM | HCT-116 > 100 µM | K562 > 100 µM | SF-539 > 100 µM | UACC-62 > 100 µM | ACHN > 100 µM | SK-MEL-28 > 100 µM | A498 > 100 µM | Malme-3M > 100 µM | SNB-19 > 100 µM | HL-60 > 100 µM | SK-OV-3 > 100 µM

COc1ccc(C)cc1-c1cc(Sc2ccccc2)c(-c2cc(C)ccc2OC)o1
inactive: IGROV-1 > 31.6 µM | NCI-H23 > 31.6 µM | KM12 > 31.6 µM | LOX IMVI > 100 µM | CAKI-1 > 31.6 µM | SK-MEL-2 > 10 µM | HCT-116 > 31.6 µM | K562 > 31.6 µM | SF-539 > 31.6 µM | UACC-62 > 31.6 µM | CCRF-CEM > 31.6 µM | ACHN > 31.6 µM | SK-MEL-28 > 31.6 µM | A498 > 31.6 µM | Malme-3M > 31.6 µM | SNB-19 > 31.6 µM | HL-60 > 31.6 µM | SK-OV-3 > 31.6 µM

N#C/C(=C\c1cccc(O)c1O)C(N)=O
inactive: IGROV-1 93.1 µM | NCI-H23 34.8 µM | KM12 36.3 µM | CAKI-1 41.3 µM | SK-MEL-2 38.4 µM | HCT-116 34.5 µM | K562 38.6 µM | SF-539 34 µM | UACC-62 35.2 µM | CCRF-CEM 14.1 µM | ACHN 26.6 µM | SK-MEL-28 30.8 µM | A498 74.3 µM | Malme-3M 46.8 µM | SNB-19 57.5 µM | HL-60 15.5 µM | SK-OV-3 28.8 µM

O=C(OCc1ccccc1)N1N=NC2C1C1CC(OCc3ccccc3)(OCc3ccccc3)C2O1 (stereo not given)
inactive: IGROV-1 > 100 µM | NCI-H23 > 100 µM | KM12 > 100 µM | LOX IMVI > 100 µM | CAKI-1 > 100 µM | SK-MEL-2 > 100 µM | K562 > 100 µM | SF-539 > 100 µM | UACC-62 > 100 µM | CCRF-CEM > 100 µM | ACHN > 100 µM | SK-MEL-28 > 100 µM | A498 > 100 µM | Malme-3M > 100 µM | HL-60 > 100 µM | SK-OV-3 > 100 µM

Cc1nc2c(n1C(C)(C)C)C(=O)c1ccccc1C2=O
inactive: IGROV-1 96.6 µM | NCI-H23 37.8 µM | KM12 74.1 µM | LOX IMVI 41.5 µM | SK-MEL-2 80.4 µM | HCT-116 54 µM | K562 49.7 µM | SF-539 > 100 µM | UACC-62 44.3 µM | CCRF-CEM 73.8 µM | ACHN 48.6 µM | SK-MEL-28 > 100 µM | Malme-3M 44.6 µM | SNB-19 > 100 µM | HL-60 46.2 µM | SK-OV-3 > 100 µM

COc1cc2cccc(/N=C/c3c(Br)ccc(OC)c3OC(C)C)c2cc1OC
inactive: IGROV-1 59.4 µM | NCI-H23 50.1 µM | KM12 30.8 µM | CAKI-1 27.9 µM | SK-MEL-2 > 100 µM | HCT-116 31 µM | K562 27 µM | SF-539 50.6 µM | UACC-62 45.7 µM | CCRF-CEM 25.7 µM | ACHN 70.3 µM | SK-MEL-28 41.6 µM | A498 > 100 µM | Malme-3M 74.5 µM | SNB-19 > 100 µM | SK-OV-3 > 100 µM

CC1(Sc2ccccc2)CN(Cc2ccccc2)C1=O (stereo not given)
inactive: IGROV-1 > 100 µM | NCI-H23 > 100 µM | KM12 > 100 µM | LOX IMVI > 100 µM | SK-MEL-2 > 100 µM | HCT-116 60 µM | K562 77.8 µM | SF-539 > 100 µM | UACC-62 > 100 µM | CCRF-CEM > 100 µM | ACHN > 100 µM | SK-MEL-28 > 100 µM | A498 > 100 µM | SNB-19 > 100 µM | HL-60 60.4 µM | SK-OV-3 > 100 µM

NC(=O)C12CC3CC(CC(Br)(C3)C1)C2
inactive: IGROV-1 > 100 µM | NCI-H23 > 100 µM | KM12 > 100 µM | LOX IMVI > 100 µM | CAKI-1 > 100 µM | HCT-116 > 100 µM | SF-539 > 100 µM | UACC-62 > 100 µM | CCRF-CEM > 100 µM | ACHN > 100 µM | SK-MEL-28 > 100 µM | A498 > 100 µM | SNB-19 > 100 µM | HL-60 > 100 µM | SK-OV-3 > 100 µM

CC(C)(C)c1cc2c(OP(c3ccccc3)c3ccccc3)c(c1)Cc1cc(C(C)(C)C)cc(c1OP(c1ccccc1)c1ccccc1)Cc1cc(C(C)(C)C)cc(c1OP(c1ccccc1)c1ccccc1)Cc1cc(C(C)(C)C)cc(c1OP(c1ccccc1)c1ccccc1)C2
inactive: IGROV-1 > 5 µM | NCI-H23 > 5 µM | KM12 > 5 µM | LOX IMVI > 5 µM | CAKI-1 > 5 µM | SK-MEL-2 > 5 µM | HCT-116 > 5 µM | K562 > 5 µM | SF-539 > 5 µM | UACC-62 > 5 µM | CCRF-CEM > 5 µM | ACHN > 5 µM | SK-MEL-28 > 5 µM | A498 > 5 µM | Malme-3M > 5 µM | SNB-19 > 5 µM | HL-60 > 5 µM | SK-OV-3 > 5 µM

CC1=CC(C)(c2c[nH]c3ccccc23)CC(C)(C)c2c1[nH]c1ccccc21 (stereo not given)
inactive: IGROV-1 16.2 µM | NCI-H23 14.4 µM | KM12 23.7 µM | LOX IMVI 15.2 µM | HCT-116 11.9 µM | K562 11.9 µM | SF-539 43.2 µM | UACC-62 15.2 µM | CCRF-CEM 9.55 µM | ACHN 17.2 µM | SK-MEL-28 14.5 µM | A498 17.7 µM | Malme-3M 16.6 µM | SNB-19 26.5 µM | HL-60 6.46 µM | SK-OV-3 28.6 µM

O=C(O)c1ccccc1C(=O)c1ccco1
inactive: IGROV-1 > 100 µM | NCI-H23 > 100 µM | KM12 > 100 µM | LOX IMVI > 100 µM | CAKI-1 > 100 µM | SK-MEL-2 > 100 µM | HCT-116 > 100 µM | K562 > 100 µM | SF-539 > 100 µM | UACC-62 > 100 µM | CCRF-CEM > 100 µM | ACHN > 100 µM | SK-MEL-28 > 100 µM | A498 > 100 µM | Malme-3M > 100 µM | SNB-19 > 100 µM | HL-60 > 100 µM

O=C1c2ccccc2C(=O)c2c1ccc1c3ccccc3n(Cc3ccccc3)c21
inactive: IGROV-1 > 100 µM | KM12 > 100 µM | LOX IMVI > 100 µM | CAKI-1 > 100 µM | SK-MEL-2 > 100 µM | HCT-116 > 100 µM | K562 > 100 µM | SF-539 > 100 µM | UACC-62 > 100 µM | CCRF-CEM > 100 µM | ACHN 94.2 µM | Malme-3M > 100 µM | HL-60 > 100 µM | SK-OV-3 > 100 µM

COc1ccc(/C=C(\NC(=O)c2ccccc2)c2nc3ccccc3[nH]2)cc1
inactive: IGROV-1 30.5 µM | NCI-H23 19.1 µM | KM12 39.6 µM | CAKI-1 36.9 µM | SK-MEL-2 21.1 µM | HCT-116 35.2 µM | K562 34.9 µM | SF-539 39.1 µM | UACC-62 24 µM | CCRF-CEM 42.4 µM | ACHN 42.6 µM | SK-MEL-28 14.6 µM | A498 > 100 µM | Malme-3M 36.3 µM | SNB-19 37.3 µM | SK-OV-3 45.1 µM

C[C@]12CC/C(=N\OC(=O)Nc3ccccc3)C=C1CC[C@@H]1C2CC[C@@]2(C)C1CC[C@@H]2OC(=O)Nc1ccccc1 (stereo not given in full)
inactive: IGROV-1 > 100 µM | NCI-H23 73.3 µM | KM12 41.9 µM | LOX IMVI > 100 µM | CAKI-1 3.27 µM | SK-MEL-2 > 100 µM | HCT-116 > 100 µM | K562 17.7 µM | SF-539 > 100 µM | UACC-62 59 µM | CCRF-CEM > 100 µM | ACHN 99.3 µM | A498 92.9 µM | SNB-19 > 100 µM | HL-60 8.79 µM | SK-OV-3 > 100 µM

Source: ChEMBL document CHEMBL1201862, “PubChem BioAssay data set” (2004)
